Test results as given in the NIST ThermoML archive (doi:10.1007/s10765-010-0719-7).

Tests used:
[1] = refractive index (Na D-line) (dimensionless); xn = mol fraction of the nth substance listed; conditions: 303.15 K, 101 kPa, Liquid, Standard Abbe refractometry
[2] = xn = mol fraction of the nth substance listed; conditions: 101 kPa, Liquid; for mass density: Pycnometric method
[3] = refractive index (Na D-line) (dimensionless); conditions: 303.15 K; 101.33 kPa; Liquid; Standard Abbe refractometry
[4] = 101 kPa, Liquid; for mass density: Pycnometric method

CC(C)CCO [3-methylbutan-1-ol] + COCCO
[1]
Conditions | refractive index
x1 = 0.0875 | 1.3988
x1 = 0.1775 | 1.3993
x1 = 0.2701 | 1.3999
x1 = 0.3653 | 1.4004
x1 = 0.4633 | 1.4009
x1 = 0.5643 | 1.4014
x1 = 0.6683 | 1.402
x1 = 0.7754 | 1.4025
x1 = 0.886 | 1.403
x1 = 1 | 1.4035

[2]
Conditions | mass density, 303.15 K [kg/m3] | mass density, 313.15 K [kg/m3] | mass density, 323.15 K [kg/m3] | speed of sound, 303.15 K [m/s] | viscosity, 303.15 K [mPa·s] | viscosity, 313.15 K [mPa·s] | viscosity, 323.15 K [mPa·s]
x1 = 0.0875 | 938.3 | 928.2 | 919.8 | 1312.1 | 1.578 | 1.312 | 1.111
x1 = 0.1775 | 920.5 | 910.8 | 902.8 | 1299.2 | 1.611 | 1.341 | 1.153
x1 = 0.2701 | 903.2 | 893.9 | 885.9 | 1287.4 | 1.652 | 1.376 | 1.169
x1 = 0.3653 | 886.7 | 877.6 | 870 | 1274.8 | 1.749 | 1.432 | 1.192
x1 = 0.4633 | 870.8 | 862.2 | 854.7 | 1261.2 | 1.82 | 1.482 | 1.224
x1 = 0.5643 | 855.8 | 847.6 | 840.1 | 1248.8 | 1.934 | 1.554 | 1.28
x1 = 0.6683 | 841.5 | 833.6 | 826.3 | 1235.7 | 2.119 | 1.667 | 1.355
x1 = 0.7754 | 827.8 | 820.5 | 813.2 | 1223.3 | 2.354 | 1.834 | 1.481
x1 = 0.886 | 815.1 | 808.1 | 801.1 | 1210.5 | 2.715 | 2.06 | 1.671
x1 = 1 | 803.1 | 796.4 | 789.8 | 1197.4 | 3.262 | 2.441 | 1.94

CC(C)CCO [3-methylbutan-1-ol] + CCOCCO
Conditions | refractive index
[1], x1 = 1 | 1.4035

[2], x1 = 1
Conditions | mass density [kg/m3] | speed of sound [m/s] | viscosity [mPa·s]
303.15 K | 803.1 | 1197.4 | 3.262
313.15 K | 796.4 | – | 2.441
323.15 K | 789.8 | – | 1.94

COCCO [2-methoxyethan-1-ol]
Conditions | refractive index
[3] | 1.3983

[4]
Conditions | mass density [kg/m3] | speed of sound [m/s] | viscosity [mPa·s]
303.15 K | 956.8 | 1324.3 | 1.55
313.15 K | 946.3 | – | 1.288
323.15 K | 937.8 | – | 1.082

CCCCOCCO [2-butoxyethan-1-ol]
Conditions | refractive index
[3] | 1.415

[4]
Conditions | mass density [kg/m3] | speed of sound [m/s] | viscosity [mPa·s]
303.15 K | 892 | 1288.4 | 2.486
313.15 K | 884.2 | – | 1.979
323.15 K | 877.5 | – | 1.653

CCOCCO [2-ethoxyethan-1-ol] + CC(C)CCO
[1]
Conditions | refractive index
x2 = 0 | 1.4065
x2 = 0.102 | 1.4062
x2 = 0.2036 | 1.4059
x2 = 0.3047 | 1.4055
x2 = 0.4053 | 1.4052
x2 = 0.5055 | 1.4049
x2 = 0.6053 | 1.4046
x2 = 0.7046 | 1.4043
x2 = 0.8035 | 1.404
x2 = 0.902 | 1.4037

[2]
Conditions | mass density, 303.15 K [kg/m3] | mass density, 313.15 K [kg/m3] | mass density, 323.15 K [kg/m3] | speed of sound, 303.15 K [m/s] | viscosity, 303.15 K [mPa·s] | viscosity, 313.15 K [mPa·s] | viscosity, 323.15 K [mPa·s]
x2 = 0 | 919.5 | 912 | 903.8 | 1301.5 | 1.623 | 1.355 | 1.143
x2 = 0.102 | 906.1 | 898.6 | 890.5 | 1292.4 | 1.688 | 1.385 | 1.169
x2 = 0.2036 | 892.9 | 885.6 | 877.7 | 1282.4 | 1.761 | 1.424 | 1.196
x2 = 0.3047 | 880.1 | 872.9 | 865.1 | 1272.7 | 1.812 | 1.469 | 1.222
x2 = 0.4053 | 867.7 | 860.5 | 853 | 1262.9 | 1.892 | 1.53 | 1.263
x2 = 0.5055 | 855.8 | 848.7 | 841.3 | 1251.2 | 1.994 | 1.604 | 1.31
x2 = 0.6053 | 844.3 | 837.3 | 830 | 1240.6 | 2.124 | 1.68 | 1.377
x2 = 0.7046 | 833.3 | 826.4 | 819.2 | 1229.3 | 2.301 | 1.812 | 1.46
x2 = 0.8035 | 822.8 | 815.9 | 808.8 | 1219.2 | 2.496 | 1.945 | 1.566
x2 = 0.902 | 812.6 | 805.8 | 799 | 1208.7 | 2.807 | 2.143 | 1.728

CCCCOCCO [2-butoxyethan-1-ol] + CC(C)CCO
[1]
Conditions | refractive index
x2 = 0 | 1.415
x2 = 0.1297 | 1.4138
x2 = 0.251 | 1.4127
x2 = 0.3649 | 1.4115
x2 = 0.472 | 1.4104
x2 = 0.5728 | 1.4093
x2 = 0.6679 | 1.408
x2 = 0.7578 | 1.4069
x2 = 0.8428 | 1.4058
x2 = 0.9235 | 1.4047

[2]
Conditions | mass density, 303.15 K [kg/m3] | mass density, 313.15 K [kg/m3] | mass density, 323.15 K [kg/m3] | speed of sound, 303.15 K [m/s] | viscosity, 303.15 K [mPa·s] | viscosity, 313.15 K [mPa·s] | viscosity, 323.15 K [mPa·s]
x2 = 0 | 892 | 884.2 | 877.5 | 1288.4 | 2.486 | 1.979 | 1.653
x2 = 0.1297 | 882.2 | 874.5 | 867.7 | 1279.8 | 2.483 | 1.969 | 1.623
x2 = 0.251 | 872.5 | 865.4 | 858.2 | 1270.3 | 2.496 | 1.967 | 1.629
x2 = 0.3649 | 863.1 | 856.1 | 848.8 | 1261.8 | 2.514 | 1.987 | 1.636
x2 = 0.472 | 853.9 | 847.2 | 839.8 | 1251.8 | 2.557 | 1.997 | 1.65
x2 = 0.5728 | 845 | 837.9 | 831 | 1242.3 | 2.594 | 2.028 | 1.673
x2 = 0.6679 | 838.6 | 829.5 | 822.3 | 1233.5 | 2.653 | 2.067 | 1.702
x2 = 0.7578 | 827.7 | 821 | 813.9 | 1224.2 | 2.748 | 2.121 | 1.737
x2 = 0.8428 | 819.3 | 812.5 | 805.7 | 1215.3 | 2.877 | 2.2 | 1.798
x2 = 0.9235 | 811.1 | 804.6 | 797.6 | 1206.4 | 3.058 | 2.303 | 1.851

CC(C)CCO [3-methylbutan-1-ol] + CCCCOCCO
Conditions | refractive index
[1], x1 = 1 | 1.4035

[2], x1 = 1
Conditions | mass density [kg/m3] | speed of sound [m/s] | viscosity [mPa·s]
303.15 K | 803.1 | 1197.4 | 3.262
313.15 K | 796.4 | – | 2.441
323.15 K | 789.8 | – | 1.94

COCCO [2-methoxyethan-1-ol] + CC(C)CCO
Conditions | refractive index
[1], x2 = 0 | 1.3983

[2], x2 = 0
Conditions | mass density [kg/m3] | speed of sound [m/s] | viscosity [mPa·s]
303.15 K | 956.8 | 1324.3 | 1.55
313.15 K | 946.3 | – | 1.288
323.15 K | 937.8 | – | 1.082

CC(C)CCO [3-methylbutan-1-ol]
Conditions | refractive index
[3] | 1.4035

[4]
Conditions | mass density [kg/m3] | speed of sound [m/s] | viscosity [mPa·s]
303.15 K | 803.1 | 1197.4 | 3.262
313.15 K | 796.4 | – | 2.441
323.15 K | 789.8 | – | 1.94

CCOCCO [2-ethoxyethan-1-ol]
Conditions | refractive index
[3] | 1.4065

[4]
Conditions | mass density [kg/m3] | speed of sound [m/s] | viscosity [mPa·s]
303.15 K | 919.5 | 1301.5 | 1.623
313.15 K | 912 | – | 1.355
323.15 K | 903.8 | – | 1.143
